How the values were obtained:
PS19 mice = assay: Immunohistochemistry of hippocampus of PS19 mice; type: in vivo, mouse
Text: FIG. 12A-12F illustrate reduced phospho-Tau accumulation in transgenic mice treated with AZD0530. FIG. 12A: Representative images of AT8 immunoreactivity in the dentate gyrus (DG) of the hippocampus in 9-month-old PS19 mice after 7 months of treatment with AZD0530 or Vehicle. Scale bar, […]. FIG. 12B: Quantification of AT8-positive area (%) in the dentate gyrus of the hippocampus in 9-month-old PS19 and WT mice after 7 months of treatment. Data are mean±SEM. n=7-10/group, each dot is one mouse. […] FIG. 12C: Representative images of immunofluorescent staining for AT8 in the CA1 of the hippocampus in 9-month-old PS19 and WT mice after 7 months of treatment. Scale bar, […]. FIG. 12D: Quantification of AT8-positive area in the CA1 of the hippocampus in 9-month-old PS19 and WT mice after 7 months of treatment. Data are mean±SEM. n=7-10/group, each dot is one mouse. […] FIG. 12E: Representative images of immunofluorescent staining for PHF1 in the CA1 of the hippocampus in 9-month-old PS19 and WT mice after 7 months of treatment. Scale bar, […]. FIG. 12F: Quantification of PHF1-positive area in the CA1 of the hippocampus in 9-month-old PS19 and WT mice after 7 months of treatment. Data are mean±SEM. n=7-10/group, each dot is one mouse.
FIGS. 13A-13D illustrate that chronic Fyn inhibition prevents glial activation in mutant Tau transgenic mice. FIG. 13A: Representative images of CD68 and Ibal double immunostaining in the CA3 region of the hippocampus from 9-month-old PS19 and WT mice after 7 months of treatment with AZD0530 or Vehicle. Scale bar, 20 μm. FIG. 13B: Quantification of CD68-positive area (%) within Ibal-immuoreative area in the CA3 segment of the hippocampus from 9-month-old PS19 and WT mice after 7 months of treatment. Data are as mean±SEM. n=7-10/group, each dot is one mouse. *p<0.05; One-way ANOVA with Dunnett's multiple comparisons test. FIG. 13C: Representative images of immunofluorescent staining GFAP in the dentate gyrus (DG) of the hippocampus in 9-month-old PS19 and WT mice after 7 months of treatment. Scale bar, 20 μm. FIG. 13D: Quantification of GFAP-positive area (%) in the dentate gyrus of the hippocampus in 9-month-old PS19 and WT mice after 7 months of treatment. n=7-10/group, each dot is one mouse. Data are mean±SEM. *p<0.05; One-way ANOVA with Dunnett's multiple comparisons test.
FIGS. 14A-14B illustrate the finding that loss of presynaptic marker SV2A in P301S Tau transgenic mice is rescued by Fyn inhibition. FIG. 14A: Representative images of immunofluorescent staining for SV2A in the CA3 region of the hippocampus from 9-month-old PS19 and WT mice after 7 months of treatment with AZD0530 or Vehicle. Dashed lines represent the divide between the cell body layer and synaptic region. The cell bodies in the image were used to capture similar ROI from each section. Scale bar, 20 μm. FIG. 14B: Quantification of SV2A-positive area (%) in the CA3 of the hippocampus in 9-month-old PS19 and WT mice after 7 months of treatment. Data are mean±SEM. n=7-10/group, each dot is one mouse.
FIGS. 19A-19D illustrate low magnification survey of gliosis in PS19 mice unaffected by AZD0530. FIG. 19A: Representative images of Ibal immunostaining in the hippocampus in 9-month-old PS19 and WT mice after 7 months of treatment. Scale bar, 100 m. FIG. 19B: Quantification of Ibal-positive area (%) in the hippocampus in 9-month-old PS19 and WT mice collected after 7 months of treatment. Data are mean±SEM. n=7-10/group. One-way ANOVA. FIG. 19C: Representative images of immunofluorescent staining GFAP in the hippocampus in 9-month-old PS19 and WT mice after 7 months of treatment. Scale bar, 100 μm. FIG. 19D: Quantification of GFAP-positive area (%) in the hippocampus in 9-month-old PS19 and WT mice collected after 7 months of treatment. Data are mean±SEM. n=7-10/group. One-way ANOVA.
Immunohistochemistry was performed as previously described (Kaufman et al., 2015, Ann Neurol 77:953-971) with slight modifications. […]

[1] = test system: APPswe/PS1ΔE9 transgenic mice; assay: Morris water maze in AD transgenic mice
Procedure: Spatial learning is plotted as latency to find a hidden platform in a Morris water maze at age 11-12 months. […] Mean±SEM for the indicated numbers of mice per genotype/treatment group.
Memory performance during a 60 sec probe trial, 24 hr after learning, where time spent in the target quadrant was measured. Random chance is 15 sec. Mean±SEM for n=9-14 in each group.
The dosing was on a twice a day schedule by oral gavage and control groups received vehicle. The identity of the active versus vehicle groups and the transgene status was unknown to the researchers handling the mice and collecting the behavioral data. […] The data from the two cohorts were pooled. Different tests were performed at 1-3 weeks (early) or 4-6 weeks (late) time points. Mice were tested in the Morris water maze at both ages, and also in Novel Object Recognition tests at the later time points. After memory testing was complete, the animals were sacrificed without ceasing their drug regimen for histological analysis.
After the learning trials, the mice were tested the subsequent day in a memory test, the 60 second probe trial with the hidden platform removed (FIG. 4). Random chance results in 15 sec occupancy in each quadrant.

[2] = test system: APPswe/PS1ΔE9 transgenic mice; assay: Novel Object Recognition in AD transgenic mice; type: in vivo, mouse; conditions: 5 weeks treatment
Src, Fyn, Yes and Lyn = conditions: blocking Src, read-out: potency; cited from earlier work
[3] = 9-month-old PS19 mice, 7 months of treatment

## CN1CCN(CCOc2cc(OC3CCOCC3)c3c(Nc4c(Cl)ccc5c4OCO5)ncnc3c2)CC1 [saracatinib, N-(5-chloro-benzo[d][1,3]dioxol-4-yl)-7-(2-(4-methylpiperazin-1-yl)ethoxy)-5-(tetrahydro-2H-pyran-4-yloxy)quinazolin-4-amine]
PS19 mice; [3]
  AT8 (phospho-Tau Ser202/Thr205) immunoreactivity in DG and CA1: significantly mitigates the increase
  CD68 immunoreactivity in Iba1-immunoreactive area of CA3: almost completely prevented the increase
  SV2A immunoreactivity in CA3: fully rescued the reduction
  astrocytosis (GFAP-immunoreactive area in dentate gyrus): significantly attenuated
  gliosis (Iba1, GFAP) in hippocampus, low magnification survey: unaffected
PS19 mice; 9-month-old PS19 mice, 7 months of treatment, vs Vehicle
  PHF-1 (phospho-Tau Ser396/Ser404) immunoreactive area in CA1: significant decrease
PS19 mice; AZD0530-treated PS19 samples
  PY18 Tau levels: no change
[1]; APPswe/PS1ΔE9 mice, 5 mg/kg/d b.i.d. oral gavage, 4-5 weeks
  latency to hidden platform (learning trials): eliminated the transgenic deficit
[1]; APPswe/PS1ΔE9 mice, 5 mg/kg/d, 5 weeks
  probe trial, preference for target quadrant: same strong preference for the target quadrant as did WT mice
[1]; shorter treatment duration or lesser doses
  learning and memory tests: did not have significant effects
[1]; wild type mice with or without 5 weeks saracatinib, 60 second trial, chance 15 sec
  probe trial, time in target quadrant: ~30 s
[1]; wild type mice, 5 mg/kg/d
  latency to hidden platform (learning trials): not altered
[2]
  Novel Object Recognition performance: performance equal to the WT mice
Src, Fyn, Yes and Lyn
  IC50: 2 to 10 nM

Reference: patent publication US11241434B2, “Compositions and methods for improving cognition in a subject” (Yale University, priority 2013, dated 2022)
